These results are taken from ChEMBL document CHEMBL1138016, “Azaadamantane benzamide 5-HT4 agonists: gastrointestinal prokinetic SC-54750” (Bioorg Med Chem Lett, 2004).

Bounds are passed on as bounds.

Assay [1] has as its target T1, Serotonin 3 (5-HT3) receptor (Rattus norvegicus, UniProt P35563+Q9JJ16).
T1 sequence (P35563 whole entry): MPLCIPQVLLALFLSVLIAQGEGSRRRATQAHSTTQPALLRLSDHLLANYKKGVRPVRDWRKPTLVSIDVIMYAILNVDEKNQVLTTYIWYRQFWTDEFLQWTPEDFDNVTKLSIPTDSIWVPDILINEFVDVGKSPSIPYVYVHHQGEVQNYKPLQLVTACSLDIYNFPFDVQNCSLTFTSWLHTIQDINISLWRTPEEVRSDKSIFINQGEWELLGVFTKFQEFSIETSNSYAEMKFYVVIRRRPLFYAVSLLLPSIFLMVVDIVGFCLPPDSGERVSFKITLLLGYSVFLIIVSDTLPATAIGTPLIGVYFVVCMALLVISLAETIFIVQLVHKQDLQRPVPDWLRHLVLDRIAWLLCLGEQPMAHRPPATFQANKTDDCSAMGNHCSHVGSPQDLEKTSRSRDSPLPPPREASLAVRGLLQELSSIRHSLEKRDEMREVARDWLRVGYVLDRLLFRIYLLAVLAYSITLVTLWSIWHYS
T1 sequence (Q9JJ16 whole entry): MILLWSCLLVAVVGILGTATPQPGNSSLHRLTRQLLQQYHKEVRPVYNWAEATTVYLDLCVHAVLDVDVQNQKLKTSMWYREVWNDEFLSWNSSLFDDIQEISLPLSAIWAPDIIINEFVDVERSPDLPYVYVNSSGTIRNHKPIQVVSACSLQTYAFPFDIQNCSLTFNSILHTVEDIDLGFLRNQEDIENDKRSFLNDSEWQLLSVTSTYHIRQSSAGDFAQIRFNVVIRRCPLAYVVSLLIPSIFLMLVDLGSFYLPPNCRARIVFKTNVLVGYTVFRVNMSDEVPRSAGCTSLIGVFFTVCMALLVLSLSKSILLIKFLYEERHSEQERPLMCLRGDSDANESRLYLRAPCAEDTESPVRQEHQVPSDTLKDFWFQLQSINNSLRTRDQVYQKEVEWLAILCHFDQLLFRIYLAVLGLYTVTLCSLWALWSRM
The assay is described as follows: Binding affinity towards 5-hydroxytryptamine 3 receptor using [3H]GR-65630 as the radioligand in male rat cortical tissue. Type of assay: protein-complex assay.

Assay [2] can be described thus: Concentration required for inhibition of 5-hydroxytryptamine 3 receptor using [3H]GR-65630 as the radioligand.
Assay [3] addresses T2, Serotonin 3 receptor (5HT3) (Mus musculus) (UniProt Q9JHJ5+P23979). Briefly: Percent inhibition of 5-hydroxytryptamine 3 receptor after intraperitoneal administration at dose of 1 mpk was determined in mice by Von Bezold-Jarisch reflex assay.
Assay [4] has as its target T2, Serotonin 3 receptor (5HT3) (Mus musculus). The assay is described as follows: Percent inhibition of 5-hydroxytryptamine 3 receptor after intraperitoneal administration at dose of 3 mpk was determined in mice by Von Bezold-Jarisch reflex assay.
Assay [5] shares this target. Briefly: Percent inhibition of 5-hydroxytryptamine 3 receptor after intraperitoneal administration at dose of 10 mpk was determined in mice by Von Bezold-Jarisch reflex assay.
Assay [6] in a line: Effective dose required towards 5-hydroxytryptamine 4 receptor as agonism in rat tunica muscularis mucosae (TMM).
Assay [7] has as its target T3, Adrenergic receptor alpha-2 (Homo sapiens, UniProt P08913+P18825+P18089).
T3 sequence (P08913 whole entry): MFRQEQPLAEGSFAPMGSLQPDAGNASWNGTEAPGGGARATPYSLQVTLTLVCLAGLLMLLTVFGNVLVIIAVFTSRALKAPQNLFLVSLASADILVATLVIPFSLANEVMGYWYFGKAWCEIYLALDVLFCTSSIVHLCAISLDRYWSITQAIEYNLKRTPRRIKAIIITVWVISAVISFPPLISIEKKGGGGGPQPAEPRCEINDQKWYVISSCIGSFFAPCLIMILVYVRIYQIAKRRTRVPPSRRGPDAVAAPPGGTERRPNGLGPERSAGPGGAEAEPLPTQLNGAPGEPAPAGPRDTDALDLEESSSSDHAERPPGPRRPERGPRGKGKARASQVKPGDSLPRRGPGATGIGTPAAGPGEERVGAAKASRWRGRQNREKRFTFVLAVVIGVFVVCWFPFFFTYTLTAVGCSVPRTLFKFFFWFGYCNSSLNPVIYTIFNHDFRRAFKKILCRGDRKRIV
T3 sequence (P18825 whole entry): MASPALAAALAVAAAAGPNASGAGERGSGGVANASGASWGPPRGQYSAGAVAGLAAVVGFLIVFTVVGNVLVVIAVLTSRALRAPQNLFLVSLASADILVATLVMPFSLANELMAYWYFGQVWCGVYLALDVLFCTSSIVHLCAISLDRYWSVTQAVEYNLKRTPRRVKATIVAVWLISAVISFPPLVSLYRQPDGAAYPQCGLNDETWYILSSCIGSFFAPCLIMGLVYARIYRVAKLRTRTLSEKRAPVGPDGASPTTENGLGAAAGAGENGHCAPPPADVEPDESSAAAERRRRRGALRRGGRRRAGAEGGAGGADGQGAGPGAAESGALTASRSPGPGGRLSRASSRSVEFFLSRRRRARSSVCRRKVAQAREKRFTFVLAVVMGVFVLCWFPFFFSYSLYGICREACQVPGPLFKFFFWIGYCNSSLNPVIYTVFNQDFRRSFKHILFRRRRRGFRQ
T3 sequence (P18089 whole entry): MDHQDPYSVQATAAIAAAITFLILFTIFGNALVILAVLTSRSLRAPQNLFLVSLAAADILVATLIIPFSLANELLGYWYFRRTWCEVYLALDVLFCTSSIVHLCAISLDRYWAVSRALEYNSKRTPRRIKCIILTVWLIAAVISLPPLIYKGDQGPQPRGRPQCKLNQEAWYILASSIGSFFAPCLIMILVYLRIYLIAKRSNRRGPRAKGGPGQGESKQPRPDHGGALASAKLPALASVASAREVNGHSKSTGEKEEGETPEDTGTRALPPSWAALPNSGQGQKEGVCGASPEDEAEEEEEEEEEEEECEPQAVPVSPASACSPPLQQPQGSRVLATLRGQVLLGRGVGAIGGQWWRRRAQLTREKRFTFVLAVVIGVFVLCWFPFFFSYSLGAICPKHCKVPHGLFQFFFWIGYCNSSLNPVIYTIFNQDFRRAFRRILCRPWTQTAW
Briefly: Concentration required for inhibition of alpha-2 adrenergic receptor. In kind it is protein assay.

The next assay concerns the target Adrenergic receptor beta (Homo sapiens, UniProt P08588+P07550+P13945). Briefly: Concentration required for inhibition of beta adrenergic receptor. Type of assay: protein assay.
A short description of assay [8]: Concentration required for inhibition of 5-hydroxytryptamine 1 receptor using [3H]-5-HT as the radioligand.
Assay [9] is described as follows: Concentration required for inhibition of Dopamine receptor D2 using [3H]spiperone as the radioligand.
In assay [10] the target is T4, Adrenergic receptor alpha-1 (Homo sapiens, UniProt P35348+P25100+P35368).
T4 sequence (P35348 whole entry): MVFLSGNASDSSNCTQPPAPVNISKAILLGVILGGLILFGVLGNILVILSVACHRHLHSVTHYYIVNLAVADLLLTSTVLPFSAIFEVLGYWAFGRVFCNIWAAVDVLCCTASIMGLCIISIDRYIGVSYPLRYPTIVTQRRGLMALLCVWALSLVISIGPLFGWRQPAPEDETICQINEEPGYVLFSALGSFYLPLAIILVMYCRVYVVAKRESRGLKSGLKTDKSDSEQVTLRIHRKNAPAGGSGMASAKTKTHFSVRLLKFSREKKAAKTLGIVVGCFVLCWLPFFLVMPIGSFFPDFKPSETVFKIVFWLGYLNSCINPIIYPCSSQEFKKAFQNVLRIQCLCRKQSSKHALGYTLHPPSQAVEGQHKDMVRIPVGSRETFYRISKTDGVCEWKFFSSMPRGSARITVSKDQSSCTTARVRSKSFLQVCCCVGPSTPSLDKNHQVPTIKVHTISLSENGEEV
T4 sequence (P25100 whole entry): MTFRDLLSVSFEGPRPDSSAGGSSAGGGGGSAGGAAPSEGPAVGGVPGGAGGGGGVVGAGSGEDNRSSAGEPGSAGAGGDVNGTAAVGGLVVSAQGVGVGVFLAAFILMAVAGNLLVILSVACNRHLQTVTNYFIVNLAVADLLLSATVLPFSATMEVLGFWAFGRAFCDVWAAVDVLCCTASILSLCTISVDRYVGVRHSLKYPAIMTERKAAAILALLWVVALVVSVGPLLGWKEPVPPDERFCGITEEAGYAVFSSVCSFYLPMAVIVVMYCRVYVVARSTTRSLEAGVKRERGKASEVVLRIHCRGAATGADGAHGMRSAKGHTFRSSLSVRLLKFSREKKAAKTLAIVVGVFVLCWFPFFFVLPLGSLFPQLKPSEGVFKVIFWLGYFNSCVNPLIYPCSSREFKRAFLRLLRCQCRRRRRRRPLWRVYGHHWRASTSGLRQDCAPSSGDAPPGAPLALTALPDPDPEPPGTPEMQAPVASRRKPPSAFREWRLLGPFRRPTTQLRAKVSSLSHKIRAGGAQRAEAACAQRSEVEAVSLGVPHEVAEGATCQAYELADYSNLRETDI
T4 sequence (P35368 whole entry): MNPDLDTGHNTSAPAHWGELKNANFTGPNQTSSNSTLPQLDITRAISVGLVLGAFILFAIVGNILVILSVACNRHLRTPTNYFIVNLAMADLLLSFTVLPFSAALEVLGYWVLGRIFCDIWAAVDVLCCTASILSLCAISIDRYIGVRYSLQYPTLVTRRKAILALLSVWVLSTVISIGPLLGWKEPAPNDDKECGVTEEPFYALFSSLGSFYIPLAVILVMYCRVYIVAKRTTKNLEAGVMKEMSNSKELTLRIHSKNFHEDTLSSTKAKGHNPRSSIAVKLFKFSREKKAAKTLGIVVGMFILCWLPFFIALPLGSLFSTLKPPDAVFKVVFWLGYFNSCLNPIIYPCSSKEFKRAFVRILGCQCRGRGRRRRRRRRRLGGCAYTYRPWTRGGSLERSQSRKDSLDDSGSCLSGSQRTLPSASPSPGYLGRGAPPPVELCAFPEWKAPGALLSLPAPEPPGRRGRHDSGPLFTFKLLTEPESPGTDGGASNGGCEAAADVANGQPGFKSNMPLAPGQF
Briefly: Concentration required for inhibition of alpha-1 adrenergic receptor using [3H]prazosin as the radioligand. Type of assay: protein assay.

Assay [11] in a line: Concentration required for inhibition of Dopamine receptor D1 using [3H]SCH-23,390 as the radioligand.
For assay [12], the target named is Serotonin 2 (5-HT2) receptor (Homo sapiens, UniProt P41595+P28223+P28335). In kind it is protein assay.
In assay [13] the target is T2, Serotonin 3 receptor (5HT3) (Mus musculus). The assay is described as follows: Percent inhibition of 5-hydroxytryptamine 3 receptor after intraperitoneal administration at dose of 0.1 mpk was determined in mice by Von Bezold-Jarisch reflex assay.
Assay [14] shares this target. Briefly: Percent inhibition of 5-hydroxytryptamine 3 receptor after intraperitoneal administration at dose of 0.3 mpk was determined in mice by Von Bezold-Jarisch reflex assay.
Assay [15] has the same target. The assay is described as follows: Percent inhibition of 5-hydroxytryptamine 3 receptor after intraperitoneal administration at dose of 0.03 mpk was determined in mice by Von Bezold-Jarisch reflex assay.
The target is the same in assay [16]. Briefly: Percent inhibition of 5-hydroxytryptamine 3 receptor after intraperitoneal administration at dose of 8 mpk was determined in mice by Von Bezold-Jarisch reflex assay.

T2 sequence (P23979 whole entry, looked up): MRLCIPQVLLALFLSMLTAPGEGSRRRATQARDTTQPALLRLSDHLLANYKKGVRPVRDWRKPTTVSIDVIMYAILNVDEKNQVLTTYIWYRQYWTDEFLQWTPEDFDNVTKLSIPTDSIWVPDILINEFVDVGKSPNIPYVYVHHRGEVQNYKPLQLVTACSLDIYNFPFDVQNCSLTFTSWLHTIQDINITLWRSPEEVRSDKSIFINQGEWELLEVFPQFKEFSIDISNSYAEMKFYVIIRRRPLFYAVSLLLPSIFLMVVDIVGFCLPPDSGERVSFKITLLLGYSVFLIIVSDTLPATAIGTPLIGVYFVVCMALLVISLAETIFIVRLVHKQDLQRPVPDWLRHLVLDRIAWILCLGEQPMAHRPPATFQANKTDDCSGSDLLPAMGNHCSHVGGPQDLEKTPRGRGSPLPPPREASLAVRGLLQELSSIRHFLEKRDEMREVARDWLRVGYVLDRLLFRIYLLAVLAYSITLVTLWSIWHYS
T2 sequence (Q9JHJ5 whole entry, looked up): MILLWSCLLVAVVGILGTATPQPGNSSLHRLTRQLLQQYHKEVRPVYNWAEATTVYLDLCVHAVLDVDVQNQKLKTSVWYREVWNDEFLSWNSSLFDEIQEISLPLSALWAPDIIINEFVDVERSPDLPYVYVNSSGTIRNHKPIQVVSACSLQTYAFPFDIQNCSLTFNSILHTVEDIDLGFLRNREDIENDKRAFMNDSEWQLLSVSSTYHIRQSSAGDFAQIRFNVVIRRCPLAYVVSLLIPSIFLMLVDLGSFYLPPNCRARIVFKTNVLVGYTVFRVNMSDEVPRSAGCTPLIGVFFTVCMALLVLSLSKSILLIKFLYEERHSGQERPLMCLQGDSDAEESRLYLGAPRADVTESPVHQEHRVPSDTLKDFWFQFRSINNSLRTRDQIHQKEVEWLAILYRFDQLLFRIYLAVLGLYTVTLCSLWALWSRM

By Ki is commonly meant a dissociation constant, usually derived from enzyme kinetics or from competition with a known ligand. Usually IC50 stands for the point on the concentration scale where inhibition reaches its midpoint. As to `COc1cc(N)c(Cl)cc1C(=O)NCC1C2CC3CC1CN(C3)C2` (stereo in doubt; 9d) [listing 1 of 2 here], the Ki in assay [1] was 144 nM. The compound also displayed an IC50 in assay [2] of 11 nM.

By inhibition is commonly meant the drop in the measured response relative to a control, in per cent. A high value points to a strong effect. `COc1cc(N)c(Cl)cc1C(=O)NCC1C2CC3CC1CN(C3)C2` (stereo in doubt; 9d) [listing 2 of 2 here]: the values for the inhibition in assay [3], in [4] and in assay [5] were 0%, 82% and 85%, respectively.

For `COc1cc(N)c(Cl)cc1C(=O)NC1C2CC3CC1CN(C3)C2` (stereo in doubt; 9a), the results for the inhibition in assay [4] and in assay [5] were 0% and 85%, respectively. The compound further gave an ED50 in assay [6] of 538 nM.

Consider `COc1cc(N)c(Cl)cc1C(=O)N[C@@H]1C2CC3CN(C2)CC31` (stereo not given in full), for which the IC50 (in assay [7]; on Adrenergic receptor beta; in assay [8]; in [9]; in assay [10]; in [11]) was above 10000 nM each time. Further, the IC50 was above 10000 nM in assay [12] and 2.3 nM in assay [2]. The same compound returned an ED50 in [6] of 51.3 nM.

In the case of `COc1cc(N)c(Cl)cc1C(=O)NCC1C2CC3CC1CN(C3)C2` (stereo in doubt; 9c), the inhibition came out at 60% in [13]; 75% in assay [14]; 0% in assay [15]; 82% in [3]; 82% in [16]; 88% in assay [5].

As for `COc1cc(N)c(Cl)cc1C(=O)NC1CCN(CCCOc2ccc(F)cc2)CC1OC` (stereo not given) [CISAPRIDE], the IC50 at Adrenergic receptor beta is above 10000 nM; in assay [8], above 10000 nM; in [10] it was 30 nM; in assay [11] it was 1700 nM. Besides, the ED50 in [6] is 54.7 nM.

Regarding `COc1cc(N)c(Cl)cc1C(=O)NC1C2CC3CC1CN(C3)C2` (stereo in doubt; 9b), the inhibition stood at 64% in [13]; 70% in assay [14]; 61% in [15]; 75% in assay [3]; 81% in assay [4]; 86% in assay [5]. In addition, the ED50 in assay [6] worked out at 262 nM.
